The results in this text go back to patent US20260198495A1, “BINARY INSECTICIDE COMPOSITION AND USE THEREOF” (SHENYANG SINOCHEM AGROCHEMICALS R & D CO., LTD., priority 2022, published 2026).

Assay type in all cases: in vivo
The test system of test [1] is 2nd-instar larvae of Spodoptera exigua Hübner. Kind of test: whole plant or invertebrate. The following applies: Spodoptera exigua, foliar; A = compound I-72, B = tetrachlorantraniliprole; cabbage leaf dipping; 72 hours; read-out: LC50. On the procedure:
Test target: 2nd-instar larvae of Spodoptera exigua Hübner.
(§1) Preparation of the pesticide solution: according to different test requirements, the test samples were accurately weighed respectively with an electronic analytical balance. The technical pesticides were dissolved in acetone, and then diluted with 0.1% Tween 80 water into a series of pesticide solutions with a certain concentration gradient according to the experimental design dosage.
Experimental method: first, cabbage leaves were selected and dipped in the prepared pesticide solution for 10 s in the order from low dosage to high dosage according to the experimental design. After natural air-drying in the shade, they were placed in a 9-cm-diameter Petri dish with filter paper, and uniform and healthy test insects were introduced, with 10 insects for each treatment and 3 replicates for each treatment. In addition, a blank control was set up.
(§2) The treated test materials were placed in an observation room, and the temperature, humidity and illumination of the observation room could be adjusted as needed. The number of dead and live insects was investigated 72 hours later.

The next test deals with Spodoptera exigua Hübner. Description: Field efficacy trial of I-72 and Spodoptera exigua Hübner nucleopolyhedrovirus, Example 87, Table 87. As to conditions: spraying. On the procedure:
This trial was arranged in the field trial shed area of the Wuhan Vegetable Research Institute. The spraying method was adopted for pesticide application. The investigation method was to take samples at 5 points, with 2 fixed plants at each point. A total of 10 plants were investigated in each plot, and the trial was repeated four times. The population base of pests was investigated before the pesticide application, and investigations were performed 3 days and 7 days after the pesticide application. The amount of water used per mu was 30L. The calculation method for the efficacy of the test pesticides is as follows:
Test pesticides: A: Spodoptera exigua Hübner nucleopolyhedrovirus suspension with 3 billion PIBs (produced by Henan Jiyuan Baiyun Industrial Co., Ltd.); and B: compound I-72 (dissolved in acetone, 0.1% Tween 80 was added, and a 10% stock solution was prepared for use).

The subject of test [2] is 2nd-instar larvae of Chilo suppressalis (Walker). Description: Joint toxicity of I-72 + carbaryl, rice stalk spraying, Example 23, Table 23. The text has this: In addition, a blank control was set up.
The treated test materials were placed in an observation room, and the temperature, humidity and illumination of the observation room could be adjusted as needed.

Test [3] has as its system adult Phyllotreta vittuta Fabr. Kind of test: Joint toxicity of I-72 + acetamiprid, Example 65, Table 65. As to conditions: A = compound I-72, B = acetamiprid; potted cabbage seedling spraying; 72 hours; read-out: LC50. On the procedure: Test target: adult Phyllotreta vittuta Fabr.
as §1
Experimental method: first, uniform and consistent potted cabbage seedlings were selected. Then, uniform spraying was performed with the pesticide solution in the order from low dosage to high dosage according to the experimental design. After air-drying in the shade, adult flea beetles were transferred onto the treated cabbage seedlings, and then glass covers were put on them, with about 30-40 adult flea beetles on each seedling and 3 replicates for each treatment. In addition, a blank control was set up.
as §2

For test [4], the system named is 3rd-instar larvae of Chilo suppressalis (Walker). Kind of test: Joint toxicity of I-72 + organophosphorus insecticides, rice seedling dipping, Example 15, Table 15. The following applies: 3rd-instar larvae, rice seedling dipping, 48 h, A = compound I-72, B = diazinon, read-out: LC50. On the procedure: Test target: 3rd-instar larvae of Chilo suppressalis (Walker), a sensitive strain reared indoors.
as §1
Experimental method: first, tender and fresh rice seedlings were selected and dipped in the prepared pesticide solution for 10 s in the order from low dosage to high dosage according to the experimental design. After natural air-drying in the shade, they were cut into small sections of 5 cm, placed in a 9-cm-diameter Petri dish with filter paper, and uniform and healthy test insects were introduced, with 10 insects for each treatment and 3 replicates for each treatment. In addition, a blank control was set up.
The treated test materials were placed in an observation room, and the temperature, humidity and illumination of the observation room could be adjusted as needed. The number of dead and live insects was investigated 48 hours later. The corrected mortality rate was calculated using the Abbott's formula, and statistical analysis was performed with the DPS data processing software to obtain the toxicity regression equation, LC50 value and 95% confidence limit of each single test pesticide and each mixture of different ratios. Then, the co-toxicity coefficient of each ratio was calculated using the Sun Y-P method to evaluate the mixing effect (the same as in Example 1).

Test [5] concerns Nilaparvata lugens (Stal) nymphs. Kind of test: Joint toxicity of I-72 + triflumezopyrim, Example 75, Table 75. The following applies: Nilaparvata lugens; A = compound I-72, B = triflumezopyrim; potted-seedling spraying; 72 hours; read-out: LC50. On the procedure:
Test target: Nilaparvata lugens (Stal) nymphs, a sensitive strain reared indoors.
as §1
Experimental method: the activity of the mixture against the Nilaparvata lugens (Stal) nymphs was determined by adopting the potted-seedling spraying method. First, rice seedlings were planted in culture pots. Uniform spraying was performed with the pesticide solution in the order from low dosage to high dosage according to the experimental design, with 2 mL for each seedling. Then, Nilaparvata lugens nymphs of uniform size were transferred onto the rice seedlings, with 3 replicates for each treatment. In addition, a blank control was set up.
The treated test materials were placed in an observation room, and the temperature, humidity and illumination of the observation room could be adjusted as needed. The number of dead and live insects was investigated 72 hours later. […] Then, the co-toxicity coefficient of each ratio was calculated using the Sun Y-P method to evaluate the mixing effect (the same as in Example 1).

SMILES strings stand for the structures. ≈ marks a conversion by molar mass, not a printed value.

The term LC50 denotes the concentration lethal to half of the exposed cells or organisms.

On to `CN(C(=O)c1ccc2c(c1)OC(F)(F)O2)c1cccc(C(=O)Nc2c(Br)cc(C(F)(C(F)(F)F)C(F)(F)F)cc2OC(F)F)c1F` [Compound I-72], for which the LC50 is 0.252 µg/mL (≈ 0.339 µM) in test [1]; 0.881 µg/mL in test [2]; 1.14 µg/mL in test [3]; 1.76 µg/mL in test [4]; 285 µg/mL in test [5]. In addition, the “Control efficacy 3 days after pesticide application” value with Spodoptera exigua Hübner (dose 6 ml per mu) was found to be 59.8%; in the test on Spodoptera exigua Hübner (dose 9 ml per mu) it was 66.5%; in the test with Spodoptera exigua Hübner (dose 12 ml per mu) it was 72.8%. Further, the “Control efficacy 7 days after pesticide application” value is 71.5% in the test with Spodoptera exigua Hübner (dose 6 ml per mu), 75.2% with Spodoptera exigua Hübner (dose 9 ml per mu) and 82.4% with Spodoptera exigua Hübner (dose 12 ml per mu).
